Measurements: the supplement of paper PMC10307832

Experiments:
Assay in all cases: relative viability (nuclei count vs DMSO), 5 days (fraction); higher = more cells survive
OSI-027 + Alpelisib = compound: COc1cccc2cc(-c3nc([C@H]4CC[C@H](C(=O)O)CC4)n4ncnc(N)c34)[nH]c12 [OSI-027] + Cc1nc(NC(=O)N2CCC[C@H]2C(N)=O)sc1-c1ccnc(C(C)(C)C(F)(F)F)c1 [Alpelisib] (partner 2 µM)
In short: (§1)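 Medians of duplicate plates are given as relative viability. That measure is the nuclei count in treated wells divided by the count in vehicle wells. Counts were taken on 4× images of lung cancer cell lines in 1536-well plates, 5 days after pin-tool dosing the day after seeding with one drug alone or a fixed anchor-drug dose plus five library-drug doses (not always all listed) in √10 steps.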

[1] = compound: CCCS(=O)(=O)Nc1ccc(F)c(C(=O)c2c[nH]c3ncc(-c4ccc(Cl)cc4)cc23)c1F [Vemurafenib] + CC(=O)c1c(C)c2cnc(Nc3ccc(N4CCNCC4)cn3)nc2n(C2CCCC2)c1=O [Palbociclib] (partner 0.5 µM)
In short: as §1

Vemurafenib + Luminespib = compound: CCCS(=O)(=O)Nc1ccc(F)c(C(=O)c2c[nH]c3ncc(-c4ccc(Cl)cc4)cc23)c1F [Vemurafenib] + CCNC(=O)c1noc(-c2cc(C(C)C)c(O)cc2O)c1-c1ccc(CN2CCOCC2)cc1 [Luminespib] (partner 0.01 µM)
In short: as §1

OSI-027 + AZD7762 = compound: COc1cccc2cc(-c3nc([C@H]4CC[C@H](C(=O)O)CC4)n4ncnc(N)c34)[nH]c12 [OSI-027] + NC(=O)Nc1cc(-c2cccc(F)c2)sc1C(=O)N[C@H]1CCCNC1 [AZD7762] (partner 0.2 µM)
In short: as §1

Cell Line	relative viability (OSI-027 + Alpelisib; first compound 0.01 µM)	relative viability (OSI-027 + Alpelisib; first compound 0.03162 µM)	relative viability (OSI-027 + Alpelisib; first compound 0.1 µM)	relative viability (OSI-027 + Alpelisib; first compound 0.3162 µM)	relative viability (OSI-027 + Alpelisib; first compound 1 µM)	relative viability ([1]; first compound 0.03162 µM)	relative viability ([1]; first compound 0.1 µM)	relative viability ([1]; first compound 0.3162 µM)	relative viability ([1]; first compound 1 µM)	relative viability (Vemurafenib + Luminespib; first compound 0.1 µM)	relative viability (Vemurafenib + Luminespib; first compound 1 µM)	relative viability (Vemurafenib + Luminespib; first compound 0.03162 µM)	relative viability (Vemurafenib + Luminespib; first compound 0.3162 µM)	relative viability (OSI-027 + AZD7762; first compound 0.01 µM)	relative viability (OSI-027 + AZD7762; first compound 0.03162 µM)	relative viability (OSI-027 + AZD7762; first compound 0.1 µM)	relative viability (OSI-027 + AZD7762; first compound 0.3162 µM)	relative viability (OSI-027 + AZD7762; first compound 1 µM)
IA-LM	0.791	0.686	0.455	0.322	0.113													
NCI-H1650						0.314	0.255	0.356	0.351	0.205	0.215							
SW 1573	0.738	0.76	0.661	0.669	0.39	0.203	0.435	0.382	0.383	0.583	0.194	0.16	0.377					
NCI-H2342						0.512	0.461	0.541	0.548	0.622	0.701	0.609	0.792	0.444	0.426	0.553	0.414	0.346
NCI-H661	0.482	0.671	0.41	0.5	0.33	0.406	0.357	0.454	0.403	0.806	0.953	0.979	0.897					
SK-LU-1	1.25	0.978	0.64	0.394	0.304	0.388	0.377	0.368	0.337	0.219	0.218	0.208	0.171					
ChaGo-K-1						0.941	0.884	0.878	0.913	0.45	0.551	0.555	0.548	0.912	0.902	0.936	0.836	0.756
NCI-H2023	0.608	0.499	0.505	0.34	0.19	0.332	0.33	0.39	0.38	0.628	0.766	0.731	0.827					
EBC-1	0.79	0.909	0.823	0.478	0.343													
Calu-6	0.917	0.974	0.75	0.697	0.42													
SW 900						0.563	0.43	0.549	0.488	0.174	0.208	0.168	0.207	0.669	0.575	0.499	0.508	0.402
NCI-H1563	0.983	0.888	0.82	0.673	0.759					0.475	0.59	0.505	0.563					
HCC-366	0.373	0.423	0.256	0.243	0.1	0.359	0.332		0.321					0.393	0.325	0.216	0.285	0.217
NCI-H522						0.822	0.743	0.857	1.26	1.14	1.13	0.96		0.807	0.89	0.68	0.672	0.612
SK-MES-1	0.898	0.841	0.811	0.534	0.337	0.314		0.314	0.318	0.553	0.745	0.866	0.646					
NCI-H1623											0.414	0.631	0.679					
NCI-H2228	0.934	0.808	0.674		0.546	0.698	0.772	0.88	0.414	0.161	0.172	0.148	0.19					
NCI-H1648							0.277	0.341	0.294					0.813	0.572		0.705	0.667
NCI-H1299	1.11	1.05	1.12	1.08	0.786													
COR-L23	0.876	0.784	0.696	0.486	0.273	0.325	0.257	0.178	0.265	0.744	0.688	0.571	0.632					
NCI-H2009	1.14	1.14	1.07	0.999	0.568	0.175	0.172	0.161	0.199	0.912	0.921	0.93	0.861					
NCI-H1703	0.32	0.285	0.284	0.279	0.238										0.0974		0.127	0.119
NCI-H596	0.432	0.534	0.503	0.503	0.354					1.1	0.958	0.984	1.01	1.14	1.08	1.08	1.06	0.943
A549	0.718	0.612	0.727	0.361	0.131													
NCI-H520	1.11	0.833	0.701	0.41	0.205	0.222	0.188	0.221	0.222	0.231	0.233	0.187	0.221					
HCC-78	0.337	0.3	0.248	0.14	0.163	0.495	0.464	0.473	0.537					0.62	0.638	0.488	0.499	0.354
COR-L 105	1.05	0.85	0.963	0.658	0.524	0.405		0.328	0.403		0.935	0.738						
